Measurements published in patent US11464749B2, “Bismuth-thiol compositions and methods of use” (Microbion Corporation, priority 2018, dated 2022).

How the values were obtained:
Experiment in all cases: Broth microdilution antifungal susceptibility (Example 13)
Format in all cases: cell-based
Candida albicans = details: 24 hr
Candida glabrata = test system: Candida glabrata
Candida krusei = test system: Candida krusei
Candida auris = test system: Candida auris
A. niger = A. niger ATCC 29508; comparators, read time not given
A. terreus = A. terreus MMX 8229; comparators, read time not given
A. fumigatus = details: comparators, read time not given
A. flavus = details: comparators, read time not given
[1] = isolate ATCC 90028 (Susceptible)
[2] = isolate ATCC MYA-2732 (FLU-R, VORI-I)
[3] = isolate MMX 7067 (FLU-R, VORI-R)
[4] = isolate MMX 7424 (CASP-R, MICA-R)
[5] = isolate MMX 7445 (FLU-R, VORI-R)
[6] = isolate ATCC 90030 (Susceptible)
[7] = isolate ATCC MYA-2950 (Susceptible)
[8] = isolate MMX 7103 (CASP-R, MICA-R)
[9] = isolate MMX 7285 (CASP-R, MICA-R)
[10] = isolate MMX 7307 (CASP-R, MICA-R, FLU-R)
[11] = isolate ATCC 14243 (Susceptible)
[12] = isolate ATCC 96685 (Susceptible)
[13] = isolate MMX 9878 (MICA-I, VORI-I)
[14] = isolate MMX 9863 (FLU-R, VORI-R)
[15] = isolate MMX 9864 (FLU-R, VORI-R)
[16] = isolate MMX 9865 (FLU-R, VORI-R)
[17] = isolate MMX 9866 (FLU-R, VORI-R)
[18] = isolate MMX 9867 (FLU-R, VORI-R)
[19] = isolate MMX 9868 (FLU-R, VORI-R)
[20] = isolate MMX 9869 (FLU-R, VORI-R)
[21] = isolate MMX 9870 (FLU-R, VORI-R)

## C[C@@H]1[C@H](O)[C@@H](C)/C=C/C=C/C=C/C=C/C=C/C=C/C=C/[C@H](O[C@@H]2O[C@H](C)[C@@H](O)[C@H](N)[C@@H]2O)C[C@@H]2O[C@](O)(C[C@@H](O)C[C@@H](O)[C@H](O)CC[C@@H](O)C[C@@H](O)CC(=O)O[C@H]1C)C[C@H](O)[C@H]2C(=O)O [AMP B]
Candida albicans; [1]
  MIC0 (complete inhibition): 0.25 µg/mL
Candida albicans; isolate ATCC 204276 (MICA-R)
  MIC0 (complete inhibition): 0.25 µg/mL
Candida albicans; [2]
  MIC0 (complete inhibition): 0.25 µg/mL
Candida albicans; isolate MMX 7053 (Susceptible)
  MIC0 (complete inhibition): 0.12 µg/mL
Candida albicans; [3]
  MIC0 (complete inhibition): 0.25 µg/mL
Candida albicans; isolate MMX 7403 (Susceptible)
  MIC0 (complete inhibition): 0.25 µg/mL
Candida albicans; [4]
  MIC0 (complete inhibition): 0.25 µg/mL
Candida albicans; isolate MMX 7430 (Susceptible)
  MIC0 (complete inhibition): 0.25 µg/mL
Candida albicans; isolate MMX 7437 (FLU-I)
  MIC0 (complete inhibition): 0.25 µg/mL
Candida albicans; [5]
  MIC0 (complete inhibition): 0.12 µg/mL
Candida glabrata; [6]
  MIC0 (complete inhibition): 0.25 µg/mL
Candida glabrata; [7]
  MIC0 (complete inhibition): 0.12 µg/mL
Candida glabrata; isolate MMX 7087 (Susceptible)
  MIC0 (complete inhibition): 0.12 µg/mL
Candida glabrata; isolate MMX 7093 (FLU-R)
  MIC0 (complete inhibition): 0.25 µg/mL
Candida glabrata; isolate MMX 7101 (FLU-R)
  MIC0 (complete inhibition): 0.25 µg/mL
Candida glabrata; [8]
  MIC0 (complete inhibition): 0.25 µg/mL
Candida glabrata; isolate MMX 7111 (Susceptible)
  MIC0 (complete inhibition): 0.25 µg/mL
Candida glabrata; [9]
  MIC0 (complete inhibition): 0.25 µg/mL
Candida glabrata; [10]
  MIC0 (complete inhibition): 0.25 µg/mL
Candida glabrata; isolate MMX 7549 (Susceptible)
  MIC0 (complete inhibition): 0.25 µg/mL
Candida krusei; isolate ATCC 6258 (MICA-I)
  MIC0 (complete inhibition): 0.5 µg/mL
Candida krusei; [11]
  MIC0 (complete inhibition): 0.25 µg/mL
Candida krusei; [12]
  MIC0 (complete inhibition): 0.5 µg/mL
Candida krusei; isolate MMX 7125 (Susceptible)
  MIC0 (complete inhibition): 0.5 µg/mL
Candida krusei; isolate MMX 7128 (Susceptible)
  MIC0 (complete inhibition): 0.5 µg/mL
Candida krusei; isolate MMX 7141 (Susceptible)
  MIC0 (complete inhibition): 0.25 µg/mL
Candida krusei; isolate MMX 7153 (MICA-R)
  MIC0 (complete inhibition): 0.5 µg/mL
Candida krusei; isolate MMX 7155 (Susceptible)
  MIC0 (complete inhibition): 0.25 µg/mL
Candida krusei; isolate MMX 7563 (Susceptible)
  MIC0 (complete inhibition): 0.5 µg/mL
Candida krusei; [13]
  MIC0 (complete inhibition): 0.5 µg/mL
Candida auris; isolate MMX 9862 (Susceptible)
  MIC0 (complete inhibition): 0.25 µg/mL
Candida auris; [14]
  MIC0 (complete inhibition): 0.12 µg/mL
Candida auris; [15]
  MIC0 (complete inhibition): 0.25 µg/mL
Candida auris; [16]
  MIC0 (complete inhibition): 0.25 µg/mL
Candida auris; [17]
  MIC0 (complete inhibition): 0.5 µg/mL
Candida auris; [18]
  MIC0 (complete inhibition): 0.5 µg/mL
Candida auris; [19]
  MIC0 (complete inhibition): 0.25 µg/mL
Candida auris; [20]
  MIC0 (complete inhibition): 1 µg/mL
Candida auris; [21]
  MIC0 (complete inhibition): 1 µg/mL
Candida auris; isolate MMX 9871 (Susceptible)
  MIC0 (complete inhibition): 1 µg/mL
A. niger
  MIC0: 0.25 µg/mL
A. terreus
  MIC0: 0.25 µg/mL
A. fumigatus; A. fumigatus ATCC 204305
  MIC0: 1 µg/mL
A. fumigatus; A. fumigatus ATCC MYA-3626
  MIC0: 1 µg/mL
A. fumigatus; A. fumigatus MMX 5934
  MIC0: 1 µg/mL
A. fumigatus; A. fumigatus MMX 5938
  MIC0: 1 µg/mL
A. fumigatus; A. fumigatus MMX 5939
  MIC0: 1 µg/mL
A. flavus; A. flavus ATCC 22546
  MIC0: 1 µg/mL
A. flavus; A. flavus ATCC 204304
  MIC0: 1 µg/mL
A. flavus; A. flavus MMX 7935
  MIC0: 1 µg/mL

## C[C@@H](c1ncncc1F)[C@](O)(Cn1cncn1)c1ccc(F)cc1F [VORI]
Candida albicans; [1]
  MIC2 (50% inhibition): ≤0.008 µg/mL
Candida albicans; isolate ATCC 204276 (MICA-R)
  MIC2 (50% inhibition): ≤0.008 µg/mL
Candida albicans; [2]
  MIC2 (50% inhibition): 0.5 µg/mL
Candida albicans; isolate MMX 7053 (Susceptible)
  MIC2 (50% inhibition): ≤0.008 µg/mL
Candida albicans; [3]
  MIC2 (50% inhibition): >8 µg/mL
Candida albicans; isolate MMX 7403 (Susceptible)
  MIC2 (50% inhibition): ≤0.008 µg/mL
Candida albicans; [4]
  MIC2 (50% inhibition): ≤0.008 µg/mL
Candida albicans; isolate MMX 7430 (Susceptible)
  MIC2 (50% inhibition): ≤0.008 µg/mL
Candida albicans; isolate MMX 7437 (FLU-I)
  MIC2 (50% inhibition): 0.12 µg/mL
Candida albicans; [5]
  MIC2 (50% inhibition): >8 µg/mL
Candida glabrata; [6]
  MIC2 (50% inhibition): 0.12 µg/mL
Candida glabrata; [7]
  MIC2 (50% inhibition): 0.12 µg/mL
Candida glabrata; isolate MMX 7087 (Susceptible)
  MIC2 (50% inhibition): 0.03 µg/mL
Candida glabrata; isolate MMX 7093 (FLU-R)
  MIC2 (50% inhibition): 2 µg/mL
Candida glabrata; isolate MMX 7101 (FLU-R)
  MIC2 (50% inhibition): 2 µg/mL
Candida glabrata; [8]
  MIC2 (50% inhibition): 0.12 µg/mL
Candida glabrata; isolate MMX 7111 (Susceptible)
  MIC2 (50% inhibition): 0.06 µg/mL
Candida glabrata; [9]
  MIC2 (50% inhibition): 1 µg/mL
Candida glabrata; [10]
  MIC2 (50% inhibition): 4 µg/mL
Candida glabrata; isolate MMX 7549 (Susceptible)
  MIC2 (50% inhibition): 0.06 µg/mL
Candida krusei; isolate ATCC 6258 (MICA-I)
  MIC2 (50% inhibition): 0.12 µg/mL
Candida krusei; [11]
  MIC2 (50% inhibition): 0.06 µg/mL
Candida krusei; [12]
  MIC2 (50% inhibition): 0.5 µg/mL
Candida krusei; isolate MMX 7125 (Susceptible)
  MIC2 (50% inhibition): 0.25 µg/mL
Candida krusei; isolate MMX 7128 (Susceptible)
  MIC2 (50% inhibition): 0.12 µg/mL
Candida krusei; isolate MMX 7141 (Susceptible)
  MIC2 (50% inhibition): 0.12 µg/mL
Candida krusei; isolate MMX 7153 (MICA-R)
  MIC2 (50% inhibition): 0.25 µg/mL
Candida krusei; isolate MMX 7155 (Susceptible)
  MIC2 (50% inhibition): 0.25 µg/mL
Candida krusei; isolate MMX 7563 (Susceptible)
  MIC2 (50% inhibition): 0.25 µg/mL
Candida krusei; [13]
  MIC2 (50% inhibition): 1 µg/mL
Candida auris; isolate MMX 9862 (Susceptible)
  MIC2 (50% inhibition): 0.03 µg/mL
Candida auris; [14]
  MIC2 (50% inhibition): >8 µg/mL
Candida auris; [15]
  MIC2 (50% inhibition): 2 µg/mL
Candida auris; [16]
  MIC2 (50% inhibition): 8 µg/mL
Candida auris; [17]
  MIC2 (50% inhibition): 8 µg/mL
Candida auris; [18]
  MIC2 (50% inhibition): 8 µg/mL
Candida auris; [19]
  MIC2 (50% inhibition): >8 µg/mL
Candida auris; [20]
  MIC2 (50% inhibition): 2 µg/mL
Candida auris; [21]
  MIC2 (50% inhibition): 4 µg/mL
Candida auris; isolate MMX 9871 (Susceptible)
  MIC2 (50% inhibition): 1 µg/mL
A. niger
  MIC0: 0.5 µg/mL
A. terreus
  MIC0: 0.25 µg/mL
A. fumigatus; A. fumigatus ATCC 204305
  MIC0: 0.5 µg/mL
A. fumigatus; A. fumigatus ATCC MYA-3626
  MIC0: 0.5 µg/mL
A. fumigatus; A. fumigatus MMX 5934
  MIC0: 0.25 µg/mL
A. fumigatus; A. fumigatus MMX 5938
  MIC0: 0.25 µg/mL
A. fumigatus; A. fumigatus MMX 5939
  MIC0: 2 µg/mL
A. flavus; A. flavus ATCC 22546
  MIC0: 1 µg/mL
A. flavus; A. flavus ATCC 204304
  MIC0: 2 µg/mL
A. flavus; A. flavus MMX 7935
  MIC0: 0.5 µg/mL
